Values quoted from earlier work, collected in patent US7807599B2, “Hydroconversion processes employing multi-metallic catalysts and method for making thereof” (Chevron U. S. A. Inc., priority 2007, dated 2010).

Tested on: rats
Settings: as single oral dose to rats

For O=CC(=O)O [glyoxylic], the LD50 is given as 3000 mg/kg.
